According to patent US11236102B2, “Oxabicycloheptane prodrugs” (Lixte Biotechnology, Inc., priority 2015, dated 2022):
pIC50: −log10 of the molar value.

Target: protein phosphatase PP2A (Homo sapiens, UniProt P67775)
Experiment: Inhibition of purified protein phosphatase PP2A
Type: biochemical
Method: In vivo, endothall has a longer half-life that LB-100 on the order of 6 hours compared to about 1 hour or less for LB-100. […] A half-life of several hours of activity is clinically more desirable that much shorter durations. Modification of substituents of LB-100 provide opportunities to further enhance the clinical usefulness of LB-100 by for example improving oral absorption, uptake into specific organs bearing the disease process, for example, the brain, and further modifying the rate of conversion for effective delivery of parent compound and/or endothall to tissue.

protein phosphatase PP2A, sequence (P67775 whole entry): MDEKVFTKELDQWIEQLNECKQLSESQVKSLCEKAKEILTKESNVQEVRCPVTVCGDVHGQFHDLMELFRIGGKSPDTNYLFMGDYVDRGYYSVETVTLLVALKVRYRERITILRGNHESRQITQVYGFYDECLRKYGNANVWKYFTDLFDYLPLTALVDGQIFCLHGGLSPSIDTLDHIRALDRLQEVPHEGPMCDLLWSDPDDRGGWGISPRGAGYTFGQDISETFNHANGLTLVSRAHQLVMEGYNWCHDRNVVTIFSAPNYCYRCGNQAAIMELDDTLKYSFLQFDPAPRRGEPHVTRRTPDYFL

Structure (SMILES): O=C(O)C1C2CCC(O2)C1C(=O)O (stereo not shown) [Endothal, 7-oxabicyclo[2.2.1]heptane-2,3-dicarboxylic acid]
- pIC50: ~7.05
